In patent publication US20150080579A1, “Salts and Polymorphs of Dexrabeprazole” (Cipla Limited, priority 2010, published 2015):

What was measured:
[1] = Storage stability: impurity profile
[2] = Storage stability: water content by KF Autotitrator; assay type: physicochemical
Protocol: Water content was measured using about 0.2 g sample in methanol by KF Autotitrator.

[3] = At 6 months, storage at 2° C. to 8° C.
[4] = Initial, stability study at 2° C. to 8° C.

| Compound | Impurity A [1, 3] [%] | Impurity B [1, 3] [%] | Impurity C [1, 3] [%] | Impurity A [1, 4] [%] | Impurity B [1, 4] [%] | Impurity C [1, 4] [%] | Stability on storage (in words) ([1]; on storage) | Water absorption on storage (in words) ([2]; 2° C. to 8° C. for 6 months) | Water content [2, 3] [% w/w] | Water content [2, 4] [% w/w] | Rise in impurities on storage (in words) ([1]; 2° C. to 8° C. for 6 months) |
| --- | --- | --- | --- | --- | --- | --- | --- | --- | --- | --- | --- |
| COCCCOc1ccnc(C[S@@+]([O-])c2nc3ccccc3[nH]2)c1C [dexrabeprazole sodium] | 0.06 | 1.25 | 0.33 | 0.02 | 0.87 | 0.22 | not stable on storage | absorbed more water than dexrabeprazole magnesium | 13.58 | 6.84 | – |
| dexrabeprazole magnesium hydrate | 0.02 | 0.07 | 0.09 | 0.02 | 0.07 | 0.09 | – | – | 10.46 | 10.27 | does not show significant rise in impurities |
